The text below walks through data of US20120132204A1, “UNIT DOSE DRY POWDER INHALER” (priority 2005, published 2012).

The nature of data set [1]: Particle size of spray-dried powder (Predictive Example). The settings on record: spray dried from 10% w/v feedstock. It counts as physicochemical. The method, then:
A feedstock comprising 10% w/v frovatriptan succinate was fed to an in-house spray-dryer and was spray dried at the following settings: feed rate=2.1 g/min, inlet temp=130° C., outlet temp=66° C., atomisation=2-fluid nozzle, atomisation pressure=2 barg, atomisation air flow rate=21 l/min, drying air pressure=1 barg, drying air flow rate=5 l/sec. A respirable powder of less than 10 microns was produced which could then be administered to a patient in need of rapid relief from a migraine using the unit-dose dry powder inhaler of the invention.

Data set [2] concerns cytochrome P450 isoenzymes. As to conditions: cited from earlier work.
A further data set relates to migraine. The settings on record: cited from earlier work.
For data set [3] the following is noted: preclinical pharmacology studies; cited from earlier work.
For data set [4] the following is noted: broad dose range of 1 to 100 mg; cited from earlier work.
The test system of the next data set is 5-HT receptor. The settings on record: compared within the triptan class; cited from earlier work.
For another data set, the system named is plasma proteins. As to conditions: cited from earlier work.

Regarding `CN[C@@H]1CCc2[nH]c3ccc(C(N)=O)cc3c2C1` [frovatriptan succinate], in data set [1], the “particle size of respirable powder” value was “less than 10 microns”.

As to `CN[C@@H]1CCc2[nH]c3ccc(C(N)=O)cc3c2C1` [Frovatriptan], in data set [2], the “inhibiting or inducing effects on cytochrome P450 isoenzymes” value is “no inhibiting or inducing effects”. In addition, the response rates result with migraine (compared with placebo) is listed as “significantly higher response rates compared with placebo”. Further, the headache recurrence rates result in the data set with migraine (compared within the triptan class) is reported as “lowest reported range of headache recurrence rates in the triptan class”. Besides, the cerebro-selectivity entry in data set [3] was “apparently cerebro-selective”. Also, in data set [4], the tolerability entry is reported as “well-tolerated”. Also, in the data set on 5-HT receptor, the 5-HT potency result was “highest 5-HT potency in the triptan class”. For the same compound, the “binding to plasma proteins” value in the data set with plasma proteins is given as “only slightly bound”.
